Converted amounts (≈) assume the structure as drawn. “And” between values parts separate entries of the source, which are not always exact repeats. Equal entries are not always repeated. Where two headings read alike, the source gives them in different places.
Key:
[1] = Quantitative determination of solubility of compound 5 (UPLC); assay type: physicochemical; details: 25 °C, aqueous buffer, thermodynamic from solid
Experimental: Compound 5 (120 mg) was weighed into shell vials and combined with acid (600 μl of a 350 mM solution of the respective acid in water).

[2] = PK studies of formulations, plasma by HPLC-MS/MS; assay type: in vivo; details: Cattle
Experimental: The following formulations were prepared and administered to animals. Blood samples were collected at pre-defined time points and the amount of compound present in plasma at the time of sampling was determined by HPLC-MS/MS. Pharmacokinetic parameters were then calculated: Cmax, Tmax, Tlast, AUC. [table]

[3] = Formulation with 10% compound 5: stability of clear solution; assay type: physicochemical; details: 10% formulation (~100 mg/ml)
[4] = FormO50 (L-tartaric acid, NaOH up to pH 4.4, water), SC, 1 mg/kg
[5] = FormO50 (L-tartaric acid, NaOH up to pH 4.4, water), SC, 5 mg/kg
[6] = FormO100 (L-tartaric acid, NaOH up to pH 4.4, water), SC, 1.5 mg/kg

COc1cc(NCCNC(=O)/C=C/C(C)(F)F)ccn1 [Compound 5]
solubility at 1 day ([1]; aqueous acid solution (350 mM citric acid in water), Citric acid 350 mM in water, read-out: Solubility T = 1 Day): 160 mg/mL (≈ 559 mM) | solubility at 1 day ([1]; aqueous acid solution (350 mM citric acid in water), Citric acid 350 mM in water, read-out: Solubility T = 1 Day Average): 149 mg/mL (≈ 523 mM) | solubility at 3 days ([1]; aqueous acid solution (350 mM citric acid in water), Citric acid 350 mM in water, read-out: Solubility T = 3 Days): 153 mg/mL (≈ 536 mM) | solubility at 3 days ([1]; aqueous acid solution (350 mM citric acid in water), Citric acid 350 mM in water, read-out: Solubility T = 3 Days Average): 151 mg/mL (≈ 529 mM) | solubility at 1 day ([1]; aqueous acid solution (350 mM ethanesulfonic acid in water), Ethanesulfonic acid 350 mM in water, read-out: Solubility T = 1 Day): 155 mg/mL (≈ 543 mM) | solubility at 1 day ([1]; aqueous acid solution (350 mM ethanesulfonic acid in water), Ethanesulfonic acid 350 mM in water, read-out: Solubility T = 1 Day Average): 145 mg/mL (≈ 507 mM) | solubility at 3 days ([1]; aqueous acid solution (350 mM ethanesulfonic acid in water), Ethanesulfonic acid 350 mM in water, read-out: Solubility T = 3 Days): 167 mg/mL (≈ 587 mM) | solubility at 3 days ([1]; aqueous acid solution (350 mM ethanesulfonic acid in water), Ethanesulfonic acid 350 mM in water, read-out: Solubility T = 3 Days Average): 165 mg/mL (≈ 578 mM) | solubility at 1 day ([1]; aqueous acid solution (350 mM fumaric acid in water), Fumaric acid 350 mM in water, read-out: Solubility T = 1 Day): 152 mg/mL (≈ 531 mM) | solubility at 1 day ([1]; aqueous acid solution (350 mM fumaric acid in water), Fumaric acid 350 mM in water, read-out: Solubility T = 1 Day Average): 149 mg/mL (≈ 522 mM) | solubility at 3 days ([1]; aqueous acid solution (350 mM fumaric acid in water), Fumaric acid 350 mM in water, read-out: Solubility T = 3 Days): 140 mg/mL (≈ 490 mM) | solubility at 3 days ([1]; aqueous acid solution (350 mM fumaric acid in water), Fumaric acid 350 mM in water, read-out: Solubility T = 3 Days Average): 153 mg/mL (≈ 535 mM) | solubility at 1 day ([1]; aqueous acid solution (350 mM malic acid in water), Malic acid 350 mM in water, read-out: Solubility T = 1 Day): 129 mg/mL (≈ 451 mM) | solubility at 1 day ([1]; aqueous acid solution (350 mM malic acid in water), Malic acid 350 mM in water, read-out: Solubility T = 1 Day Average): 122 mg/mL (≈ 427 mM) | solubility at 3 days ([1]; aqueous acid solution (350 mM malic acid in water), Malic acid 350 mM in water, read-out: Solubility T = 3 Days): 117 mg/mL (≈ 409 mM) | solubility at 3 days ([1]; aqueous acid solution (350 mM malic acid in water), Malic acid 350 mM in water, read-out: Solubility T = 3 Days Average): 116 mg/mL (≈ 408 mM) | solubility at 1 day ([1]; aqueous acid solution (350 mM oxalic acid in water), Oxalic acid 350 mM in water, read-out: Solubility T = 1 Day): 149 mg/mL (≈ 523 mM) | solubility at 1 day ([1]; aqueous acid solution (350 mM oxalic acid in water), Oxalic acid 350 mM in water, read-out: Solubility T = 1 Day Average): 142 mg/mL (≈ 498 mM) | solubility at 3 days ([1]; aqueous acid solution (350 mM oxalic acid in water), Oxalic acid 350 mM in water, read-out: Solubility T = 3 Days): 155 mg/mL (≈ 544 mM) | solubility at 3 days ([1]; aqueous acid solution (350 mM oxalic acid in water), Oxalic acid 350 mM in water, read-out: Solubility T = 3 Days Average): 155 mg/mL (≈ 544 mM) | solubility at 1 day ([1]; aqueous acid solution (350 mM oxoglutaric acid in water), Oxoglutaric acid 350 mM in water, read-out: Solubility T = 1 Day): 128 mg/mL (≈ 447 mM) | solubility at 1 day ([1]; aqueous acid solution (350 mM oxoglutaric acid in water), Oxoglutaric acid 350 mM in water, read-out: Solubility T = 1 Day Average): 129 mg/mL (≈ 453 mM) | solubility at 3 days ([1]; aqueous acid solution (350 mM oxoglutaric acid in water), Oxoglutaric acid 350 mM in water, read-out: Solubility T = 3 Days): 135 mg/mL (≈ 472 mM) | solubility at 3 days ([1]; aqueous acid solution (350 mM oxoglutaric acid in water), Oxoglutaric acid 350 mM in water, read-out: Solubility T = 3 Days Average): 134 mg/mL (≈ 468 mM) | solubility at 1 day ([1]; aqueous acid solution (350 mM tartaric acid in water), Tartaric acid 350 mM in water, read-out: Solubility T = 1 Day): 117 mg/mL (≈ 410 mM) | solubility at 1 day ([1]; aqueous acid solution (350 mM tartaric acid in water), Tartaric acid 350 mM in water, read-out: Solubility T = 1 Day Average): 137 mg/mL (≈ 481 mM) | solubility at 3 days ([1]; aqueous acid solution (350 mM tartaric acid in water), Tartaric acid 350 mM in water, read-out: Solubility T = 3 Days): 162 mg/mL (≈ 567 mM) | solubility at 3 days ([1]; aqueous acid solution (350 mM tartaric acid in water), Tartaric acid 350 mM in water, read-out: Solubility T = 3 Days Average): 163 mg/mL (≈ 571 mM) | Tlast ([2]; FormO50 (L-tartaric acid, NaOH up to pH 4.4, water), SC, 0.5 mg/kg): 4.4 h | Tlast ([2]; FormO50 (L-tartaric acid, NaOH up to pH 4.4, water), SC, 0.75 mg/kg): 5.6 h | AUC [2, 4]: 1149 ng·h/mL and 969 ng·h/mL | Cmax [2, 4]: 705 ng/mL and 815 ng/mL | Tlast [2, 4]: 6 h and 7 h and 6.8 h | AUC [2, 5]: 8817 ng·h/mL | Cmax [2, 5]: 5975 ng/mL | Tlast [2, 5]: 8 h | Tlast ([2]; FormO50 (L-tartaric acid, NaOH up to pH 4.4, water), SC, 10 mg/kg): 12 h | AUC [2, 6]: 1422 ng·h/mL | Cmax [2, 6]: 862 ng/mL | Tlast [2, 6]: 10.0 h and 8.5 h | Tmax [2, 6]: 22.8 min | Tlast ([2]; FormU100 (L-tartaric acid, propylene glycol 400 mg, benzylalcohol, water), SC, 1.5 mg/kg): 10.0 h | Tlast ([2]; FormV100 (L-tartaric acid, propylene glycol 500 mg, benzylalcohol, water), SC, 1.5 mg/kg): 10.0 h | Tlast ([2]; FormW100 (L-tartaric acid, propylene glycol 300 mg, benzylalcohol, water), SC, 1.5 mg/kg): 9.5 h | AUC ([2]; bovine, plasma, sc, 0.5 mg/kg, pH 4.4, FormO50 (L-tartaric acid, NaOH up to pH 4.4, water), 0.5 mg/kg, read-out: AUC): 371 ng·h/mL | Cmax ([2]; bovine, plasma, sc, 0.5 mg/kg, pH 4.4, FormO50 (L-tartaric acid, NaOH up to pH 4.4, water), 0.5 mg/kg, read-out: Cmax): 305 ng/mL | Tmax ([2]; bovine, plasma, sc, 0.5 mg/kg, pH 4.4, FormO50 (L-tartaric acid, NaOH up to pH 4.4, water), 0.5 mg/kg, read-out: Tmax): 18 min | AUC ([2]; bovine, plasma, sc, 0.75 mg/kg, pH 4.4, FormO50 (L-tartaric acid, NaOH up to pH 4.4, water), 0.75 mg/kg, read-out: AUC): 616 ng·h/mL | Cmax ([2]; bovine, plasma, sc, 0.75 mg/kg, pH 4.4, FormO50 (L-tartaric acid, NaOH up to pH 4.4, water), 0.75 mg/kg, read-out: Cmax): 397 ng/mL | Tmax ([2]; bovine, plasma, sc, 0.75 mg/kg, pH 4.4, FormO50 (L-tartaric acid, NaOH up to pH 4.4, water), 0.75 mg/kg, read-out: Tmax): 30 min | AUC ([2]; bovine, plasma, sc, 1 mg/kg, pH 4.4, FormO50 (L-tartaric acid, NaOH up to pH 4.4, water), 1 mg/kg, read-out: AUC): 973 ng·h/mL | Cmax ([2]; bovine, plasma, sc, 1 mg/kg, pH 4.4, FormO50 (L-tartaric acid, NaOH up to pH 4.4, water), 1 mg/kg, read-out: Cmax): 521 ng/mL | Tmax ([2]; bovine, plasma, sc, 1 mg/kg, pH 4.4, FormO50 (L-tartaric acid, NaOH up to pH 4.4, water), 1 mg/kg, read-out: Tmax): 36 min | AUC ([2]; bovine, plasma, sc, 1.5 mg/kg, FormU100 (L-tartaric acid, propylene glycol 400 mg, benzylalcohol, water), 1.5 mg/kg, read-out: AUC): 1680 ng·h/mL | Cmax ([2]; bovine, plasma, sc, 1.5 mg/kg, FormU100 (L-tartaric acid, propylene glycol 400 mg, benzylalcohol, water), 1.5 mg/kg, read-out: Cmax): 593 ng/mL | Tmax ([2]; bovine, plasma, sc, 1.5 mg/kg, FormU100 (L-tartaric acid, propylene glycol 400 mg, benzylalcohol, water), 1.5 mg/kg, read-out: Tmax): 37.8 min | AUC ([2]; bovine, plasma, sc, 1.5 mg/kg, FormV100 (L-tartaric acid, propylene glycol 500 mg, benzylalcohol, water), 1.5 mg/kg, read-out: AUC): 1520 ng·h/mL | Cmax ([2]; bovine, plasma, sc, 1.5 mg/kg, FormV100 (L-tartaric acid, propylene glycol 500 mg, benzylalcohol, water), 1.5 mg/kg, read-out: Cmax): 540 ng/mL | Tmax ([2]; bovine, plasma, sc, 1.5 mg/kg, FormV100 (L-tartaric acid, propylene glycol 500 mg, benzylalcohol, water), 1.5 mg/kg, read-out: Tmax): 105 min | AUC ([2]; bovine, plasma, sc, 1.5 mg/kg, FormW100 (L-tartaric acid, propylene glycol 300 mg, benzylalcohol, water), 1.5 mg/kg, read-out: AUC): 1520 ng·h/mL | Cmax ([2]; bovine, plasma, sc, 1.5 mg/kg, FormW100 (L-tartaric acid, propylene glycol 300 mg, benzylalcohol, water), 1.5 mg/kg, read-out: Cmax): 743 ng/mL | Tmax ([2]; bovine, plasma, sc, 1.5 mg/kg, FormW100 (L-tartaric acid, propylene glycol 300 mg, benzylalcohol, water), 1.5 mg/kg, read-out: Tmax): 52.8 min | AUC ([2]; bovine, plasma, sc, 1.5 mg/kg, pH 4.4, FormO100 (L-tartaric acid, NaOH up to pH 4.4, water), 1.5 mg/kg, read-out: AUC): 1680 ng·h/mL | Cmax ([2]; bovine, plasma, sc, 1.5 mg/kg, pH 4.4, FormO100 (L-tartaric acid, NaOH up to pH 4.4, water), 1.5 mg/kg, read-out: Cmax): 1010 ng/mL | Tmax ([2]; bovine, plasma, sc, 1.5 mg/kg, pH 4.4, FormO100 (L-tartaric acid, NaOH up to pH 4.4, water), 1.5 mg/kg, read-out: Tmax): 18.6 min | AUC ([2]; bovine, plasma, sc, 5 mg/kg, pH 4.4, FormO50 (L-tartaric acid, NaOH up to pH 4.4, water), 5 mg/kg, read-out: AUC): 7890 ng·h/mL | Cmax ([2]; bovine, plasma, sc, 5 mg/kg, pH 4.4, FormO50 (L-tartaric acid, NaOH up to pH 4.4, water), 5 mg/kg, read-out: Cmax): 3310 ng/mL | Tmax ([2]; bovine, plasma, sc, 5 mg/kg, pH 4.4, FormO50 (L-tartaric acid, NaOH up to pH 4.4, water), 5 mg/kg, read-out: Tmax): 24 min | AUC ([2]; bovine, plasma, sc, 10 mg/kg, pH 4.4, FormO50 (L-tartaric acid, NaOH up to pH 4.4, water), 10 mg/kg, read-out: AUC): 18800 ng·h/mL | Cmax ([2]; bovine, plasma, sc, 10 mg/kg, pH 4.4, FormO50 (L-tartaric acid, NaOH up to pH 4.4, water), 10 mg/kg, read-out: Cmax): 5930 ng/mL | Tmax ([2]; bovine, plasma, sc, 10 mg/kg, pH 4.4, FormO50 (L-tartaric acid, NaOH up to pH 4.4, water), 10 mg/kg, read-out: Tmax): 36 min | stability (remains clear solution) ([3]; pH of 4.4, equimolar Citric acid): 3 months | stability (remains clear solution) ([3]; pH of 4.4, equimolar Malic acid): 3 months | stability (remains clear solution) ([3]; pH of 4.4, equimolar Tartaric acid): 3 months

Reference: patent US20210107874A1, “PHARMACEUTICAL FORMULATION OF CROTONYLAMINOPYRIDINE SALT” (priority 2017, published 2021)
